Laboratory results taken from US10670605B2, “Cysteine reactive probes and uses thereof” (The Scripps Research Institute, priority 2015, dated 2020).
Where “and” joins values, the source holds several entries; their conditions need not be identical. Equal values may be shown once.

What was measured:
Experiment in all cases: Competitive isoTOP-ABPP, cell lysates
Format in all cases: binding
DDX59 C414 (Q5T1V6) = biological target: T1, DDX59 C414 (Q5T1V6) (Homo sapiens, UniProt Q5T1V6); conditions: for isoTOP-ABPP reactivity profile ratio, Q5T1V6_C414 / isoTOP-ABPP reactivity ratio, Q5T1V6_C414: 500 μm
T1 sequence (Q5T1V6 1-619): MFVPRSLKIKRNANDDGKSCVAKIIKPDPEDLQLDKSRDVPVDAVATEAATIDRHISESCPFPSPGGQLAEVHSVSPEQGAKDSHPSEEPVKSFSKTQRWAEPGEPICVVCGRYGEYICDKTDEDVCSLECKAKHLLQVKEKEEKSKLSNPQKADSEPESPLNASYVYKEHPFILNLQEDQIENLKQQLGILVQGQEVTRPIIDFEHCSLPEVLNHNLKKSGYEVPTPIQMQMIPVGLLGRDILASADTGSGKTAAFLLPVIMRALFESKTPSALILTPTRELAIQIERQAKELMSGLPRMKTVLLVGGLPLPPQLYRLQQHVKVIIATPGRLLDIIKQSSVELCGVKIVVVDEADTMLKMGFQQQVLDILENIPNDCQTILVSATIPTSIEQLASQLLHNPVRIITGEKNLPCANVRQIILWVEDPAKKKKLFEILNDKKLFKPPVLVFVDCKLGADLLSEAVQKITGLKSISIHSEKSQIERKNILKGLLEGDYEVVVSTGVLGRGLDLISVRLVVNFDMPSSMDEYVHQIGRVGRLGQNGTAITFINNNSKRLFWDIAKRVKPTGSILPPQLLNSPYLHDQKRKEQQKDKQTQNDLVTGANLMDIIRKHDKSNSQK

LRBA C1704 (P50851) = LRBA C1704 (P50851) (Homo sapiens, UniProt P50851); conditions: for isoTOP-ABPP reactivity ratio, P50851_C1704 / isoTOP-ABPP reactivity profile ratio, P50851_C1704: 500 μm, in-vitro_ramos
LRBA C1704 (P50851), sequence (P50851 whole entry, the tested form may be a part): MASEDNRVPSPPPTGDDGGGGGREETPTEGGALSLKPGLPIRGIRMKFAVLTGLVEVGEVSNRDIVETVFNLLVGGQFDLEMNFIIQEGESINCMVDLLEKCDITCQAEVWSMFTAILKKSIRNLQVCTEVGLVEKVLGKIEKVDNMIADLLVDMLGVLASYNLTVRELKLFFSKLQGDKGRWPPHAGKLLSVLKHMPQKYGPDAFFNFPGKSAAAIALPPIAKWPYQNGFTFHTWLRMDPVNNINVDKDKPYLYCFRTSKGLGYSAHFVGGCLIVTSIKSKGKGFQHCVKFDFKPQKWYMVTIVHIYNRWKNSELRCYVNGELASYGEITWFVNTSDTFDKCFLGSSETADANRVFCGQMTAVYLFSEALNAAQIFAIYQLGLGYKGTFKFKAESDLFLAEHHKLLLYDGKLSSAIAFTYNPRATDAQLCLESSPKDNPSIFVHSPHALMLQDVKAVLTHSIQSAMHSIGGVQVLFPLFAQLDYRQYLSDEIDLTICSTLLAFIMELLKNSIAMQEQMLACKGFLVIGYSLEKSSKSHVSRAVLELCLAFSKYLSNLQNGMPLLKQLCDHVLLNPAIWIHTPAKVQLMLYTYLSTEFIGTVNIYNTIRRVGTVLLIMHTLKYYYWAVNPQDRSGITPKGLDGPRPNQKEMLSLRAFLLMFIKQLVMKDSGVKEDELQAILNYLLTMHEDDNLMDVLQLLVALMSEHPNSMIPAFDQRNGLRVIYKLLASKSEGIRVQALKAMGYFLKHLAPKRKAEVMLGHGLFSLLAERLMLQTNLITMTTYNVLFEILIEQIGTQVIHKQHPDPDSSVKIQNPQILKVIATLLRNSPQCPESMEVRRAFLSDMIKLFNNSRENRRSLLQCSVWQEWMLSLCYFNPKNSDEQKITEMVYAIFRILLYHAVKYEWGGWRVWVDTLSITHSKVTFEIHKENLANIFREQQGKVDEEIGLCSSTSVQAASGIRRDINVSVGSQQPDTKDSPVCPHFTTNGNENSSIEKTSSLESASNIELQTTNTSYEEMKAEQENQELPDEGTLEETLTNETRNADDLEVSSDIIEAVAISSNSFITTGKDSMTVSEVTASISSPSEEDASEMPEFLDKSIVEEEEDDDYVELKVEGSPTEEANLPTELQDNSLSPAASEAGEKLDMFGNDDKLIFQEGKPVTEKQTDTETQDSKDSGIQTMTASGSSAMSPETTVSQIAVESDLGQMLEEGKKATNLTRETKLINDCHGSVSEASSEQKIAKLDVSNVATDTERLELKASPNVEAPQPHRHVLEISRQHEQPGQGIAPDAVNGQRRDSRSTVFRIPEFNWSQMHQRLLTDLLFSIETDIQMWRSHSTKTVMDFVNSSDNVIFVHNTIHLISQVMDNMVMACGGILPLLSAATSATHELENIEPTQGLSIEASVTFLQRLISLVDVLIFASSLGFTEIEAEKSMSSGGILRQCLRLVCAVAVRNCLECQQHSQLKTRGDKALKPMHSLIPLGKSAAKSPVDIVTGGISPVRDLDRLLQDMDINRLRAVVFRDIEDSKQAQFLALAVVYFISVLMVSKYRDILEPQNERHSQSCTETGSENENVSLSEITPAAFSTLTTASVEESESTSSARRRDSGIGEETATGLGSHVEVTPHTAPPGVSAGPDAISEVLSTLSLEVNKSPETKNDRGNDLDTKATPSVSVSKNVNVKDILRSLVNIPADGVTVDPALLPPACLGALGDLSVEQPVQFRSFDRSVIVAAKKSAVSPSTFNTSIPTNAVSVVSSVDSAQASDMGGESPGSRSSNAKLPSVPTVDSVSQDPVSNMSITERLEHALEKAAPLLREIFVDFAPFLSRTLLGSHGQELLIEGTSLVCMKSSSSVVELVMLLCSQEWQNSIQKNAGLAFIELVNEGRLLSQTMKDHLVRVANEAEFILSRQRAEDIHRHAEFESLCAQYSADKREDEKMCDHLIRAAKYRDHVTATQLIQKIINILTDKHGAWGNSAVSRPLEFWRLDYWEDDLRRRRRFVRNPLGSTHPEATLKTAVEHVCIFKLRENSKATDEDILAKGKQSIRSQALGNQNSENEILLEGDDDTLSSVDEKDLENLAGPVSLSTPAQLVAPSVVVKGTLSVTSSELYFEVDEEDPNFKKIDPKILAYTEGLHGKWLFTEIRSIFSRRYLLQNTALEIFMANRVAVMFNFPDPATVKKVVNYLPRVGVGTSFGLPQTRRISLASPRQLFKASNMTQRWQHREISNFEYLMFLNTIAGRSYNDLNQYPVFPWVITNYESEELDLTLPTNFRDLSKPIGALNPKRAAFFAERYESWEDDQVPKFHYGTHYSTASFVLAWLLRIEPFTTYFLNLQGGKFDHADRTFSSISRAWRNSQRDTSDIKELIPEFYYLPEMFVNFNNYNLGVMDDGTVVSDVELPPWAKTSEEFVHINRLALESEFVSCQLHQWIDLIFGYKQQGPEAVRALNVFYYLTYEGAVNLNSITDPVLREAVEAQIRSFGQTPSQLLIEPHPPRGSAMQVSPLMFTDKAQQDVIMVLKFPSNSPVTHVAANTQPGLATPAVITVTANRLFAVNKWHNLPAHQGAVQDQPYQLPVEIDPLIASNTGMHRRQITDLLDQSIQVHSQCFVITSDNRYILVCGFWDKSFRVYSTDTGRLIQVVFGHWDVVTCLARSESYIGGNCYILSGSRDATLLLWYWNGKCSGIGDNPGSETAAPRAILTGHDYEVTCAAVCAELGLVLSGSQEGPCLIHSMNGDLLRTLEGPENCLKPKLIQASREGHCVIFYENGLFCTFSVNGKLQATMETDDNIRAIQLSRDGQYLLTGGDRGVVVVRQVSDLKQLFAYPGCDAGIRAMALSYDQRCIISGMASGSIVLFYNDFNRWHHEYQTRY

NR3C1 C302 (P04150) = biological target: T2, NR3C1 C302 (P04150) (Homo sapiens, UniProt P04150); conditions: for R value (DMSO/fragment) / isoTOP-ABPP ratio, P04150_C302: 500 μM; for R value (DMSO/fragment): in vitro, MDA-MB-231; for isoTOP-ABPP ratio, P04150_C302: invitro; for isoTOP-ABPP reactivity ratio, P04150_C302 / isoTOP-ABPP reactivity profile ratio, P04150_C302: 500 μm
T2 sequence (P04150 1-777): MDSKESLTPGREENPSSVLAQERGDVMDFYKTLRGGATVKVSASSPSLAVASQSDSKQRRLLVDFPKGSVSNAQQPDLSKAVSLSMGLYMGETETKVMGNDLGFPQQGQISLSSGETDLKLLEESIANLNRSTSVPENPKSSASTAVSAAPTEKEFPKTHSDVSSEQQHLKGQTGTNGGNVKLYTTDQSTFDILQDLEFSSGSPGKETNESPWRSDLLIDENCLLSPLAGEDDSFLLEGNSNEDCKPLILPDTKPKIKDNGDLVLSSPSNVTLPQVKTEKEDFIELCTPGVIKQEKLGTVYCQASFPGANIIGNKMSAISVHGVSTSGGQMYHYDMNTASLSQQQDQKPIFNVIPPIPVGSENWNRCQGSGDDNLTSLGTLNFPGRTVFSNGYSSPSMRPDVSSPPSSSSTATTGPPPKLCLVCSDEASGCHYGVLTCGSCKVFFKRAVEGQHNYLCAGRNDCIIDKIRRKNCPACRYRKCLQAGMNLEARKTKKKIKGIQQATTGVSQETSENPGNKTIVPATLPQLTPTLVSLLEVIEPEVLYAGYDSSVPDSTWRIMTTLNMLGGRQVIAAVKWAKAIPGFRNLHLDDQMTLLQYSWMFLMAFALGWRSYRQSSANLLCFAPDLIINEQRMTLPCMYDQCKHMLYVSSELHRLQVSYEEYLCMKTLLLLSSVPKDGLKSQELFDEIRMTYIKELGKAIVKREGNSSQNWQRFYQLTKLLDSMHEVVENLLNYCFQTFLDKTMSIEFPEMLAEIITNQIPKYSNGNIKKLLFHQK

O=C(CCl)NC1C(O)OC(CO)C(O)C1O (mixture of isomers) [compound 44]
isoTOP-ABPP reactivity profile ratio, Q5T1V6_C414 (DDX59 C414 (Q5T1V6); in-vitro_ramos_231): 0.8

COc1ccc2c(c1)CCCN2C(=O)CCl [compound 2]
R value (DMSO/fragment) (DDX59 C414 (Q5T1V6); 500 μM, in vitro, MDA-MB-231): 20.0 | R value (DMSO/fragment) (DDX59 C414 (Q5T1V6); 500 μM, invitro, ramos): 20.0 | R value (DMSO/fragment) (LRBA C1704 (P50851); 500 μM, invitro, ramos): 3.4 | R value (DMSO/fragment) (NR3C1 C302 (P04150)): 2.3

O=C(CCl)Nc1cc(C(F)(F)F)cc(C(F)(F)F)c1 [compound 3]
R value (DMSO/fragment) (DDX59 C414 (Q5T1V6); 500 μM, invitro, ramos): 6.0 | R value (DMSO/fragment) (LRBA C1704 (P50851); 500 μM, invitro, ramos): 3.6 | R value (DMSO/fragment) (NR3C1 C302 (P04150)): 7.6

COc1ccc(C2CC(c3cccs3)=NN2C(=O)CCl)cc1 (centres unmarked) [compound 4]
R value (DMSO/fragment) (LRBA C1704 (P50851); 250 μM, in vitro, Ramos): 1.5

C=CC(=O)N(c1ccccc1)c1ccc(Br)cc1 [compound 5]
isoTOP-ABPP ratio, P50851_C1704 (LRBA C1704 (P50851); 500 μM, invitro, ramos): 3.6

O=C(CCl)N1CCN(S(=O)(=O)c2ccccc2F)CC1 [compound 10]
isoTOP-ABPP ratio, P50851_C1704 (LRBA C1704 (P50851); 500 μM, invitro, ramos): 0.8 | isoTOP-ABPP ratio, P04150_C302 (NR3C1 C302 (P04150); 231): 4.1

Cn1cc(S(=O)(=O)N2CCOCC2)cc1C(=O)NC(=O)CCl [compound 11]
isoTOP-ABPP ratio, P50851_C1704 (LRBA C1704 (P50851); 500 μM, invitro, ramos): 1.4 | isoTOP-ABPP ratio, P04150_C302 (NR3C1 C302 (P04150); ramos): 1.5

O=C(CCl)NC(=O)NC12CC3CC(CC(C3)C1)C2 [compound 12]
isoTOP-ABPP ratio, P04150_C302 (NR3C1 C302 (P04150); ramos): 1.3

O=C(CCl)NCCc1c[nH]c2ccccc12 [compound 13]
isoTOP-ABPP ratio, Q5T1V6_C414 (DDX59 C414 (Q5T1V6); 500 μM, invitro, ramos): 1.2 | isoTOP-ABPP ratio, P50851_C1704 (LRBA C1704 (P50851); 500 μM, invitro, 231): 0.7 | isoTOP-ABPP ratio, P50851_C1704 (LRBA C1704 (P50851); 500 μM, invitro, ramos): 0.8

C=CC(=O)N(Cc1cccnc1)c1ccc(Oc2ccccc2)c(C(F)(F)F)c1 [compound 15]
isoTOP-ABPP ratio (reactivity profile), Q5T1V6_C414 (DDX59 C414 (Q5T1V6); 500 μm in-vitro ramos): 1.0 | isoTOP-ABPP ratio (reactivity profile), P50851_C1704 (LRBA C1704 (P50851); 500 μm in-vitro ramos): 1.9 | isoTOP-ABPP ratio (reactivity profile), P04150_C302 (NR3C1 C302 (P04150); 500 μm in-vitro ramos): 0.9

O=C(CCl)N1CCC(C(O)(c2ccccc2)c2ccccc2)CC1 [compound 20]
isoTOP-ABPP ratio (reactivity profile), Q5T1V6_C414 (DDX59 C414 (Q5T1V6); 500 μm in-vitro ramos): 3.1 | isoTOP-ABPP ratio (reactivity profile), P50851_C1704 (LRBA C1704 (P50851); 500 μm in-vitro ramos): 1.7 | isoTOP-ABPP ratio (reactivity profile), P50851_C1704 (LRBA C1704 (P50851); 500 μm in-vitro ramos_231): 2.0

O=C(CCl)NC12CC3CC(CC(C3)C1)C2 [compound 21]
isoTOP-ABPP ratio (reactivity profile), Q5T1V6_C414 (DDX59 C414 (Q5T1V6); 500 μm in-vitro ramos_231): 1.2 | isoTOP-ABPP ratio (reactivity profile), P50851_C1704 (LRBA C1704 (P50851); 500 μm in-vitro ramos): 1.6

O=C(CCl)N1CCOCC1 [compound 22]
isoTOP-ABPP ratio (reactivity profile), Q5T1V6_C414 (DDX59 C414 (Q5T1V6); 500 μm in-vitro ramos): 1.3 | isoTOP-ABPP ratio (reactivity profile), P04150_C302 (NR3C1 C302 (P04150); 500 μm in-vitro ramos): 0.9

N#C/C(=C\c1cc(C(F)(F)F)cc(C(F)(F)F)c1)C(N)=O [compound 23]
isoTOP-ABPP ratio (reactivity profile), Q5T1V6_C414 (DDX59 C414 (Q5T1V6); 500 μm in-vitro ramos): 1.4 | isoTOP-ABPP ratio (reactivity profile), P50851_C1704 (LRBA C1704 (P50851); 500 μm in-vitro ramos): 3.4 | isoTOP-ABPP ratio (reactivity profile), P04150_C302 (NR3C1 C302 (P04150); 500 μm in-vitro ramos): 4.7

CC(Br)C(=O)Nc1cc(C(F)(F)F)cc(C(F)(F)F)c1 (centres unmarked) [compound 24]
isoTOP-ABPP ratio (reactivity profile), Q5T1V6_C414 (DDX59 C414 (Q5T1V6); 500 μm in-vitro ramos): 1.7 | isoTOP-ABPP ratio (reactivity profile), P50851_C1704 (LRBA C1704 (P50851); 500 μm in-vitro ramos): 1.3

CC(Cl)C(=O)Nc1cc(C(F)(F)F)cc(C(F)(F)F)c1 (centres unmarked) [compound 25]
isoTOP-ABPP ratio (reactivity profile), P50851_C1704 (LRBA C1704 (P50851); 500 μm in-vitro ramos_231): 0.8

CC(C)CCOCCNC(=O)CCl [compound 27]
isoTOP-ABPP ratio (reactivity profile), Q5T1V6_C414 (DDX59 C414 (Q5T1V6); 500 μm in-vitro ramos): 1.0 | isoTOP-ABPP ratio (reactivity profile), Q5T1V6_C414 (DDX59 C414 (Q5T1V6); 500 μm in-vitro ramos_231): 0.8 | isoTOP-ABPP ratio (reactivity profile), P50851_C1704 (LRBA C1704 (P50851); 500 μm in-vitro ramos_231): 1.1 | isoTOP-ABPP ratio (reactivity profile), P04150_C302 (NR3C1 C302 (P04150); 500 μm in-vitro ramos_231): 1.3 and 1.0

CCN(CC)c1ccc(S(N)(=O)=O)cc1NC(=O)CCl [compound 30]
isoTOP-ABPP reactivity ratio, Q5T1V6_C414 (DDX59 C414 (Q5T1V6); in-vitro_ramos): 2.0

C=CC(=O)N(Cc1cccnc1)c1cc(C(F)(F)F)cc(C(F)(F)F)c1 [compound 31]
isoTOP-ABPP reactivity ratio, P50851_C1704 (LRBA C1704 (P50851)): 1.4

CC(C)(C)c1cc(NC(=O)CCl)on1 [compound 32]
isoTOP-ABPP reactivity ratio, P50851_C1704 (LRBA C1704 (P50851)): 2.0

O=C(CCl)N(Cc1ccc(F)cc1)C12CC3CC(CC(C3)C1)C2 [compound 34]
isoTOP-ABPP reactivity ratio, Q5T1V6_C414 (DDX59 C414 (Q5T1V6); in-vitro_ramos_231): 0.6

O=C(CCl)Nc1ccccc1C1CCCCCC1 [compound 35]
isoTOP-ABPP reactivity ratio, Q5T1V6_C414 (DDX59 C414 (Q5T1V6); in-vitro_ramos): 1.3 | isoTOP-ABPP reactivity ratio, P50851_C1704 (LRBA C1704 (P50851)): 1.1 | isoTOP-ABPP reactivity ratio, P04150_C302 (NR3C1 C302 (P04150); in-vitro_ramos): 0.9

C=CC(=O)N1CCC(c2noc3ccc(F)cc23)CC1 [compound 37]
isoTOP-ABPP reactivity ratio, Q5T1V6_C414 (DDX59 C414 (Q5T1V6); in-vitro_ramos): 1.0 | isoTOP-ABPP reactivity ratio, P50851_C1704 (LRBA C1704 (P50851)): 1.0 | isoTOP-ABPP reactivity ratio, P04150_C302 (NR3C1 C302 (P04150); in-vitro_ramos): 0.9

C=CC(=O)Nc1cc(F)c(N2CCN(C(=O)OC(C)(C)C)CC2)c(F)c1 [compound 38]
isoTOP-ABPP reactivity ratio, Q5T1V6_C414 (DDX59 C414 (Q5T1V6); in-vitro_ramos): 1.8 | isoTOP-ABPP reactivity ratio, Q5T1V6_C414 (DDX59 C414 (Q5T1V6); in-vitro_ramos_231): 0.9 | isoTOP-ABPP reactivity ratio, P50851_C1704 (LRBA C1704 (P50851)): 2.5

C=CC(=O)Nc1cc(C)c(Br)cc1C [compound 40]
isoTOP-ABPP reactivity ratio, Q5T1V6_C414 (DDX59 C414 (Q5T1V6); in-vitro_ramos): 1.4

Cc1ccc(C=C(C#N)C(=O)NCCN2CCOCC2)cc1 [compound 41]
isoTOP-ABPP reactivity ratio, Q5T1V6_C414 (DDX59 C414 (Q5T1V6); in-vitro_ramos): 1.0 | isoTOP-ABPP reactivity ratio, Q5T1V6_C414 (DDX59 C414 (Q5T1V6); in-vitro_ramos_231): 1.2

COc1cc(NC(=O)CCl)cc(OC)c1 [compound 43]
isoTOP-ABPP reactivity profile ratio, P04150_C302 (NR3C1 C302 (P04150); in-vitro_ramos_231): 1.5

O=C(CCl)Nc1cccc2ncccc12 [compound 51]
isoTOP-ABPP reactivity profile ratio, P50851_C1704 (LRBA C1704 (P50851)): 1.1

O=C(CCl)Nc1ccc(-c2ccccc2)cc1 [compound 52]
isoTOP-ABPP reactivity profile ratio, P50851_C1704 (LRBA C1704 (P50851)): 1.1 | isoTOP-ABPP reactivity profile ratio, P04150_C302 (NR3C1 C302 (P04150); in-vitro_ramos): 1.8

C=CC(=O)N1CCC(Cc2ccccc2)CC1 [compound 53]
isoTOP-ABPP reactivity profile ratio, Q5T1V6_C414 (DDX59 C414 (Q5T1V6); in-vitro_ramos_231): 0.8
